Results from PMC6949113, “Preclinical evaluation of AT-527, a novel guanosine nucleotide prodrug with potent, pan-genotypic activity against hepatitis C virus” (PLoS ONE, 2020).
Read-outs that look alike come from different tables or passages of the source.

Columns and labels:
[1] = tested on: SDH-A protein in PC3 cells; experiment: Mitobiogenesis toxicity assay, SDH-A; type: cell-based, human; conditions: 5 days, read-out: Mitogenesis IC50 SDH-A
Method: (§1) Mitobiogenesis toxicity assay. […] One plate was used to measure cell viability by XTT staining. Cells in the remaining two plates were fixed with 4% paraformaldehyde for 20 min, washed thrice with DPBS, and 0.5% acetic acid added for 5 min to block endogenous alkaline phosphatase activity. Nuclear DNA encoded Complex II SDH-A mitochondrial protein and mitochondrial encoded Complex IV COX-1 protein were measured spectrophotometrically using the Abcam Mitobiogenesis ELISA kit (Cambridge, UK) per the manufacturer’s instructions.

K562 cells [2] = experiment: K562 cytotoxicity (XTT, 3 days); type: cell-based, human
Method: (§2) Mitochondrial toxicity assay. K562 leukemia cells (ATCC, CCL-243) seeded in 96-well plates (1x10^5 cells/well) were incubated in triplicate with test or positive control compounds in RPMI containing glucose, 10% FBS and 2 mM L-glutamine. […] Viability was compared with untreated cells to determine TC50 values. Separately, K562 cells were incubated in triplicate with test compounds in glucose-free RPMI supplemented with 10 mM galactose. Test compounds diluted in RPMI containing glucose were evaluated in parallel.

K562 cells [3] = experiment: Mitochondrial toxicity assay (Mitochondrial ToxGlo, glucose/galactose); type: cell-based, human
Method: as §2

PC3 cells = experiment: PC3 cytotoxicity (XTT, 5 days); type: cell-based, human
Method: as §1

[4] = tested on: COX-1 protein in PC3 cells; experiment: Mitobiogenesis toxicity assay, COX-1; type: cell-based, human; conditions: 5 days, read-out: Mitogenesis IC50 COX-1
Method: as §1

[5] = Intracellular metabolism in human hepatocytes; type: in vitro ADME; conditions: human hepatocytes; low to undetectable
Method: (§3) Hepatocytes. […] Cryopreserved male mouse (CD1), and fresh male Beagle dog and male cynomolgus monkey hepatocytes were obtained from BioreclamationIVT (Baltimore, MD) and were similarly plated with Matrigel in 6- or 24-well plates and maintained overnight in InVitroGRO™HI medium with Torpedo™ antibiotic (BioreclamationIVT). The protocol described above for measuring AT-511 and its metabolites in Huh-7 cells was repeated with the five different hepatocytes. Untreated cells were collected at 24 h, and the protein content of the cell lysates were determined using a bicinchoninic acid protein assay kit to assess the number of cells in each incubation. Separately, plated human hepatocytes were incubated for 6 h with 100 μM AT-511, followed by washout periods of 0, 2, 6, 18 and 30 h.
(§4) S3 Protocol. LC-MS/MS analysis of AT-511 and metabolites in cultured cells. The supernatant extracts of each hepatocyte and Huh-7 cell incubation were separately analyzed by four different LC-MS/MS methods for quantitation of phosphoramidates, nucleosides, monophosphates, and triphosphates (methods 1, 2, 3 and 4, respectively), using synthetic reference standards of actually and potentially present compounds and using structurally related analogs as internal standards. Briefly, a Luna PFP (2), 5 µm, 100 x 4.6 mm column and an AB Sciex API-6500 mass spectrometer (ESI positive ion, MRM mode) were used for methods 1-3 and an XBridge Oligonucleotide, BEH C18, 2.5 µm, 50 x 2.1 mm column and a Thermo QE Plus mass spectrometer (electrospray, negative ion mode) were used for method 4. For methods 1 and 2, mobile phases A (10 mM ammonium acetate in water) and B (acetonitrile:methanol, 1:1, v/v) were used to elute samples (5 µL) at 1 mL/min with 15% B for 1.5 min followed by a linear gradient to 75% B over 1 min (method 1) or with 54% B for 1.3 min followed by a linear gradient to 90% B over 1.2 min. Method 3 was the same except mobile phase A was 0.3% acetic acid in water, […] and samples were eluted with 3% B for 3 min followed by a linear gradient to 55% B over 1.2 min. For method 4, mobile phase A (3 mM ammonium formate with 10 mM dimethylhexylamine (DMHA) in water) and mobile phase B (3 mM ammonium formate with 10 mM DMHA in acetonitrile:water, 1:1, v/v) were used to elute samples at 0.4 mL/min with 0% B for 1.5 min followed by a linear gradient to 100% B over 2 min and ending with an isocratic elution for 0.5 min at 100% B.

Monkey PK study, plasma = type: in vivo, cynomolgus monkey; conditions: for plasma concentration: male cynomolgus monkeys; for AUC(0-t) / Cmax / MRT last / Tmax: male, cynomolgus, cynomolgus monkey, in vivo, po
From the text: Monkey PK study. Male non-naïve cynomolgus monkeys were obtained from Hainan Jingang Laboratory Animal Co., Ltd. (Hainan, China), group housed during the 5-day acclimation period or individually housed during the study in stainless steel mesh cages, provided ad libitum access to RO water, fed twice daily (~120 g Certified Monkey Diet daily; Beijing Vital Keao Feed Co., Ltd., Beijing, China) and given daily treats of fresh fruit. Additional environmental enrichment included classical music and cartoons. Three groups of 5 monkeys each were administered 30, 100 or 300 mg/kg AT-527 as a powder filled in empty porcine hard gelatin capsules (size 0). The monkeys were fasted overnight prior to dosing and fed 4 h after dosing. Three dosages were selected to provide assessments of dose proportionality, the top two representing potential doses for a repeated oral dose toxicity study in monkeys, and the lowest predicted to be more therapeutically relevant. A pill gun was used to place the capsule beyond the root of the animals’ tongues and their mouths were held loosely closed for approximately 30 sec to allow them to move the jaw and swallow the capsule. Immediately following capsule administration, 20 mL of water was given by mouth and then the mouth was opened to ensure the capsule was swallowed. Blood samples (~0.6 mL) were collected up to 72 h from three animals per dose group, and up to 4 h from the remaining two animals in each group, at the same time points described for rats. […] Blood samples were collected with a syringe from a peripheral blood vessel from restrained, non-sedated animals, immediately transferred to pre-chilled tubes containing ~1 mg K2EDTA•2H20 and 20 μL of 5 mM dichlorvos solution, mixed and placed on ice until plasma was prepared by centrifugation as described for rats. Immediately after centrifugation, plasma samples were extracted with 4 volumes ISS2, and the supernatants were clarified by centrifugation (12,000 rpm, 10 min, 4°C) and stored at ≤ -60°C until analyzed by LC-MS/MS as described below. After the 4-hr blood collection, two monkeys per dose group were anesthetized with intravenous injection of pentobarbital sodium (60 mg/kg) and then euthanized as described for rats. […] All analytes were quantitated by LC-MS/MS as described below.
LC-MS/MS analysis of rat and monkey plasma and tissue homogenate supernatants. For the analysis of AT-511 in rat plasma, aliquots were extracted with 10 volumes ISS2. The supernatants were clarified by centrifugation (4000 rpm for 10 min at 4°C) and 3 μL samples were injected onto an Acuity BEH C18 1.7 μm, 2.1 × 50 mm column and a Sciex API 4000 mass spectrometer (ESI positive ion, MRM mode). Mobile phases A (0.025% formic acid (FA) and 1 mM ammonium acetate (AA) in 5% ACN in water) and B (0.025% FA and 1 mM AA in 95% ACN in water) were used to elute samples (3 μL) at 0.6 mL/min with 10% B for 0.3 min followed by linear gradients to 60% B over 0.6 min and to 90% B over 0.2 min, and ending with 90% B for 0.4 min.
PK data analysis. […] The linear/log trapezoidal rule was applied in obtaining the PK parameters.

[6] = Intracellular metabolism in dog hepatocytes; type: in vitro ADME, Beagle dog; conditions: low to undetectable
Method: as §3, §4

[7] = Rat pharmacokinetic study, plasma; type: in vivo, Sprague-Dawley rat; conditions: for plasma concentration, individual rats: AT-527 500 mg/kg oral, male 1-3, female 7-9, BQL: <0.0017 AT-511, <0.0022 M1, <0.0032 AT-273, M4
[8] = Intracellular metabolism in mouse hepatocytes; type: in vitro ADME, mouse (CD1); conditions: low to undetectable
Method: as §3, §4

[9] = K562 cells, glucose medium, 3 days, XTT
[10] = K562, glucose-free galactose medium, 2 h, inhibition of cellular ATP levels, read-out: MF (Gal) IC50, mitochondrial function
[11] = K562, glucose-free galactose medium, 2 h, measure of necrosis, read-out: MI (Gal) IC50, cell membrane integrity
[12] = Homo sapiens, K562, 2 h, read-out: MF (Gal) IC50, mitochondrial function
[13] = Homo sapiens, K562, glucose-free galactose medium, 2 h, measure of necrosis, read-out: MI (Gal) IC50, cell membrane integrity
[14] = both sexes, Sprague-Dawley, rat, in vivo, po, 500 mg/kg

## N#CC(C#N)=NNc1cccc(Cl)c1 [CCCP]
[1]
  IC50: 13.5 µM
K562 cells [2]; [9]
  Cytotoxicity TC50: 8.8 µM
K562 cells [3]; [10]
  IC50: < 0.6 µM
K562 cells [3]; [11]
  IC50: 7 µM
PC3 cells; PC3 cells, 5 days, XTT
  Cytotoxicity TC50: 17.7 µM
[4]
  IC50: 15.1 µM

## O=C(N[C@H](CO)[C@H](O)c1ccc([N+](=O)[O-])cc1)C(Cl)Cl [Chloramphenicol]
[1]; Homo sapiens, PC-3, 120 h
  IC50: > 100 µM
K562 cells [2]; human, 3 days
  Cytotoxicity TC50: 50.9 µM
K562 cells [3]; [12]
  IC50: > 100 µM
K562 cells [3]; [13]
  IC50: > 100 µM
PC3 cells; human, 5 days
  Cytotoxicity TC50: >100 µM
[4]; Homo sapiens, PC-3, 120 h
  IC50: 95.3 µM

## C[C@@H]1CC[C@@]2(OC1)O[C@H]1[C@@H](O)[C@H]3[C@@H]4CC[C@H]5C[C@@H](O[C@@H]6O[C@H](CO)[C@H](O[C@@H]7O[C@H](CO)[C@@H](O)[C@H](O[C@@H]8OC[C@@H](O)[C@H](O)[C@H]8O)[C@H]7O[C@@H]7O[C@H](CO)[C@H](O)[C@H](O[C@@H]8O[C@H](CO)[C@@H](O)[C@H](O)[C@H]8O)[C@H]7O)[C@H](O)[C@H]6O)[C@H](O)C[C@]5(C)[C@H]4CC[C@]3(C)[C@H]1[C@@H]2C [Digitonin]
[1]; Homo sapiens, PC-3, 120 h
  IC50: 40.7 µM
K562 cells [2]; [9]
  Cytotoxicity TC50: 8.1 µM
K562 cells [3]; [12]
  IC50: 27.9 µM
K562 cells [3]; [13]
  IC50: 31.9 µM
PC3 cells; PC3 cells, 5 days, XTT
  Cytotoxicity TC50: 27.2 µM
[4]; Homo sapiens, PC-3, 120 h
  IC50: 32.6 µM

## CNc1nc(N)nc2c1ncn2[C@@H]1O[C@H](CO)[C@@H](O)[C@@]1(C)F [M4]
[5]
  intracellular levels of nucleoside metabolites: < 10 pmol/10^6 cells
Monkey PK study, plasma; single oral AT-527 100 mg/kg, 0.500 h, monkey 1;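 for plasma concentration: concentrations in nmol/mL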
  plasma concentration: BQL
Monkey PK study, plasma; single oral AT-527 100 mg/kg, 72.0 h, monkey 2;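 for plasma concentration: concentrations in nmol/mL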
  plasma concentration: BQL
Monkey PK study, plasma; single oral AT-527 300 mg/kg, 0.500 h, monkey 1;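 for plasma concentration: concentrations in nmol/mL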
  plasma concentration: BQL
Monkey PK study, plasma; single oral AT-527 300 mg/kg, 0.500 h, monkey 2;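 for plasma concentration: concentrations in nmol/mL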
  plasma concentration: BQL
Monkey PK study, plasma; single oral AT-527 300 mg/kg, 0.500 h, monkey 3;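 for plasma concentration: concentrations in nmol/mL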
  plasma concentration: BQL
Monkey PK study, plasma; single oral AT-527 300 mg/kg, 1.00 h, monkey 1;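 for plasma concentration: concentrations in nmol/mL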
  plasma concentration: BQL
Monkey PK study, plasma; single oral AT-527 300 mg/kg, 72.0 h, monkey 3
  plasma concentration: BQL
Monkey PK study, plasma; 30 mg/kg
  AUC(0-t): 18.2 ± 1.7 µM·h
  Cmax: 0.67 ± 0.14 µM
  MRT last: 22.4 ± 2.4 h
  Tmax: 14.7 ± 8.1 h
Monkey PK study, plasma; 100 mg/kg
  AUC(0-t): 39.2 ± 15 µM·h
  Cmax: 1.3 ± 0.49 µM
  MRT last: 22.3 ± 4.1 h
  Tmax: 15.3 ± 7.6 h
Monkey PK study, plasma; 300 mg/kg
  AUC(0-t): 53.9 ± 31.7 µM·h
  Cmax: 1.66 ± 0.49 µM
  MRT last: 26.6 ± 9.6 h
  Tmax: 17.3 ± 11.5 h
[6]
  intracellular levels of nucleoside metabolites: < 10 pmol/10^6 cells
[7]; 48.0 h
  plasma concentration, individual rats: BQL
[7]; 72.0 h
  plasma concentration, individual rats: BQL
[7]; [14]
  AUC(0-t): 207 ± 56.1 µM·h
  Cmax: 28.8 ± 8.5 µM
  MRT last: 6.41 ± 1.06 h
[8]
  intracellular levels of nucleoside metabolites: < 10 pmol/10^6 cells

## Nc1ccn([C@H]2CC[C@@H](CO)O2)c(=O)n1 [ddC]
[1]
  IC50: > 20 µM
K562 cells [2]
  Cytotoxicity TC50: >20 µM
K562 cells [3]; [10]
  IC50: > 20 µM
K562 cells [3]; [11]
  IC50: > 20 µM
PC3 cells
  Cytotoxicity TC50: >20 µM
[4]
  IC50: 1.1 µM
